Experimental data taken from article PMC11466185, “Mechanisms and efficacy of small molecule latency-promoting agents to inhibit HIV reactivation ex vivo” (JCI Insight, 2024).
Where “and” joins values, the source holds several entries; their conditions need not be identical. Identical values can stand only once. Like-named read-outs stand apart in the source and are kept apart here.

What was measured:
[1] = test system: HIV transcripts (TAR, LLTR, Pol, PolyA, TatRev); experiment: Cell-associated HIV transcripts (RT-ddPCR) 6 days after anti-CD3/CD28 activation of PBMCs from ART-suppressed PWH; format: cell-based; details: for Pol / PolyA / TAR / TatRev: DMSO αCD3/28 = 100, Fig 4A; for LLTR/TAR / PolyA/LLTR / TatRev/PolyA: DMSO+CD3/28 = 1, Fig 4B, C and D
Method: Next, we evaluated the ability of the candidate LPAs to sustain the inhibitory effects during a prolonged ex vivo culture. To this end, PBMCs were cultured in the presence of individual drugs in DMSO or in DMSO alone as control, activated (anti-CD3/CD28), and harvested after 6 days. […] However, we decided to test the drug on day 6 because extra cells were available from some study participants.
Each drug was tested in PBMCs from at least 6 ART-suppressed study participants (except for KRIBB11, n = 5). PBMCs were aliquoted into wells at 6 × 10^6 cells/well. After activation, the cells were cultured with antiretrovirals in the presence of individual drugs in DMSO or DMSO alone as control. All conditions were tested in the presence of CD3/28 T cell–activating beads, except for the unactivated DMSO condition. After 6 days, total cellular RNA was extracted, and the progression through different stages of HIV transcription was quantified by measuring the levels of initiated (TAR), 5′ elongated (LLTR), midtranscribed/unspliced (Pol), completed (PolyA), and multiply spliced (TatRev) HIV transcripts. (A) The levels of all HIV transcripts were normalized to 1 μg of total cellular RNA and expressed as a percentage of the activated DMSO control (% of activated DMSO). Medians are shown as well as the individual values per study participant in different colors. (B–D) The effect of each drug on HIV transcriptional progression after activation was analyzed by the ratio of one HIV transcript to another. Ratios are independent of HIV infection frequency or normalization to cell numbers. Shown are the proportion of (B) all HIV transcripts that are elongated (LLTR/TAR), (C) elongated HIV transcripts that are completed (PolyA/LLTR), and (D) completed transcripts that are multiply spliced (TatRev/PolyA). Medians and IQR are presented, along with the individual values per study participant in different colors. P values were calculated using Wilcoxon’s signed-rank test: *P < 0.05.
PBMCs were isolated from fresh venous blood from 16 ART-suppressed HIV-infected study participants using Ficoll density gradient centrifugation. The cells were seeded at 6 × 10^6 cells/well and cultured with antiretrovirals (nevirapine and indinavir) to prevent new infection. On the next day, PBMCs were activated with anti-CD3/CD28–coated beads (Invitrogen) in the presence of 20 U/mL IL-2 and individual drugs in DMSO or DMSO alone as a control. Since we were limited in the PBMC yield per study participant, different study participants were used for different experiments (such as the initial screen, dose response, different time points, and studies in activated vs. unstimulated cells). In addition, the yields of PBMCs were sometimes insufficient to test all drugs for a given question or experiment.
For quantification of cell-associated HIV transcripts, PBMCs were harvested either after 24 hours or after 6 days. The cell viabilities were measured by trypan blue staining; then the cells were pelleted by centrifuging at 300g for 6 minutes and stored at –80°C. For quantification of virion-associated HIV RNA, cell culture supernatant was collected from 6 × 10^6 PBMCs that were treated and activated for 6 days as described above. Residual cells and cellular debris were subsequently removed from the supernatant by differential centrifugation (300g for 6 minutes, then 20,000g for 10 minutes), and the supernatant was stored at –80°C.
Total cellular DNA and RNA were extracted in parallel using Trireagent (Molecular Research Center) according to the manufacturer’s instructions, except for study participants 2147 and 2461 (Figure 4), for whom DNA and RNA were extracted using the QIAGEN AllPrep DNA/RNA/miRNA Universal Kit with on-column DNase I treatment of the RNA and the manufacturer’s modification to enhance recovery of short transcripts.

[2] = test system: HIV transcripts (PolyA, TatRev); experiment: Dose-response curves of LPAs: polyadenylated and multiply spliced HIV transcripts 24 hours after activation; format: cell-based; details: for IC50: Human immunodeficiency virus 1, PBMC, 24 h, PBMCs from 1 participant per drug; for MS Tat-Rev (dose-response) / PolyA (dose-response): 24 hours, 1 participant per drug
Method: The IC50 was determined based on the reduction in completed (PolyA) as well as multiply spliced (TatRev) HIV transcripts relative to activated DMSO (Table 1).
Figure 2 Dose-response curves of LPAs. Dose-response curves for each drug were generated in PBMCs from 1 ART-suppressed study participant per drug. PBMCs were aliquoted into wells at 6 × 10^6 cells/well, activated, and cultured with antiretrovirals in the presence of DMSO alone (no drug) or varying concentrations of individual drugs in DMSO. After 24 hours, the levels of polyadenylated and multiply spliced HIV transcripts were quantified by RT-ddPCR, normalized to 1 μg of total cellular RNA, and expressed as a percentage of the activated DMSO control (% of activated DMSO).

| Compound | LLTR/TAR ([1]; participant 2027) | PolyA/LLTR ([1]; participant 2027) | TatRev/PolyA ([1]; participant 2027) | LLTR/TAR ([1]; participant 2147a) | PolyA/LLTR ([1]; participant 2147a) | TatRev/PolyA ([1]; participant 2147a) | LLTR/TAR ([1]; participant 2256) | PolyA/LLTR ([1]; participant 2256) | TatRev/PolyA ([1]; participant 2256) | LLTR/TAR ([1]; participant 2461) | PolyA/LLTR ([1]; participant 2461) | LLTR/TAR ([1]; participant 150b) | PolyA/LLTR ([1]; participant 150b) | TatRev/PolyA ([1]; participant 150b) | LLTR/TAR ([1]; participant 1379) | PolyA/LLTR ([1]; participant 1379) | LLTR/TAR ([1]; participant 2161) | PolyA/LLTR ([1]; participant 2161) | LLTR/TAR ([1]; participant 5557) | PolyA/LLTR ([1]; participant 5557) | other results |
| --- | --- | --- | --- | --- | --- | --- | --- | --- | --- | --- | --- | --- | --- | --- | --- | --- | --- | --- | --- | --- | --- |
| CNc1ccc([N+](=O)[O-])c(Nc2ccc3[nH]ncc3c2)n1 [KRIBB11] | 0.5893 | 1.299 | 0.1042 | 0.1271 | 0.3184 | 1.2464 | 0.8849 | 0.9116 | 1.489 | 0.5717 | 4.558 | – | – | – | – | – | – | – | – | – | LLTR HIV transcripts (DMSO αCD3/28 = 100) ([1]; 2.5μM, 6 days after αCD3/28 activation, each column one participant): 71.6 and 44.44 and 38.82 and 82.14 and 98.47; Pol ([1]; participant 2027): 73.68; PolyA ([1]; participant 2027): 106.67; TAR ([1]; participant 2027): 139.39; TatRev ([1]; participant 2027): 11.11; Pol ([1]; participant 2147a): 33.33; PolyA ([1]; participant 2147a): 22.8; TAR ([1]; participant 2147a): 563.24; TatRev ([1]; participant 2147a): 46.99; Pol ([1]; participant 2256): 169.23; PolyA ([1]; participant 2256): 89.76; TAR ([1]; participant 2256): 111.27; TatRev ([1]; participant 2256): 84.19; PolyA ([1]; participant 2461): 176.92; TAR ([1]; participant 2461): 67.9; Pol ([1]; participant 2747): 8.97; PolyA ([1]; participant 2747): 19.67; TAR ([1]; participant 2747): 56.38; TatRev ([1]; participant 2747): 30 |
| CN1CC[C@H](c2c(O)cc(O)c3c(=O)cc(-c4ccccc4Cl)oc23)[C@H](O)C1 [alvocidib] | 0.4309 | 0.9713 | 0.1413 | 0.3521 | 0.4486 | 0.2041 | 0.6179 | 0.6868 | 0.617 | 1.513 | 1.443 | 0.5959 | 1.023 | 0.12 | 0.8323 | 0.9327 | 1.064 | 0.55 | 0.4901 | 0.9442 | LLTR/TAR ([1]; participant 2747): 0; IC50 ([2]; reduction in PolyA HIV transcripts relative to activated DMSO, read-out: Completed (PolyA) IC50): 3.41 nM; IC50 ([2]; reduction in TatRev HIV transcripts relative to activated DMSO, read-out: Multiply spliced (TatRev) IC50): 4.23 nM; MS Tat-Rev (dose-response) ([2]; dose 4 nM): 60.15 % of activated DMSO; PolyA (dose-response) ([2]; dose 4 nM): 52.96 % of activated DMSO; MS Tat-Rev (dose-response) ([2]; dose 10 nM): 21.37 % of activated DMSO; PolyA (dose-response) ([2]; dose 10 nM): 17.13 % of activated DMSO; MS Tat-Rev (dose-response) ([2]; dose 40 nM): 5.52 % of activated DMSO; PolyA (dose-response) ([2]; dose 40 nM): 5.99 % of activated DMSO; MS Tat-Rev (dose-response) ([2]; dose 100 nM): 1.88 % of activated DMSO; PolyA (dose-response) ([2]; dose 100 nM): 3.2 % of activated DMSO |
| CCc1cnn2c(NCc3ccc[n+]([O-])c3)cc(N3CCCC[C@H]3CCO)nc12 [dinaciclib] | 0.2578 | 0.8564 | 0.1946 | 2.005 | 0.4014 | 0.7191 | – | – | – | 2.038 | 3.944 | 0.1874 | 1.735 | 1.49 | – | – | 1.155 | 1.48 | – | – | TatRev/PolyA ([1]; participant 2161): 1.061; LLTR/TAR ([1]; participant 2750): 1.778; PolyA/LLTR ([1]; participant 2750): 2.886; TatRev/PolyA ([1]; participant 2750): 0.2646; PolyA (dose-response) ([2]; dose 1 nM): 39.51 % of activated DMSO; PolyA (dose-response) ([2]; dose 4 nM): 6.37 % of activated DMSO; PolyA (dose-response) ([2]; dose 8 nM): 1.62 % of activated DMSO |
| mithramycin A | – | – | – | – | – | – | 1.969 | 0 | – | – | – | 3.173 | 0.3062 | 1.15 | 7.408 | 0.07562 | – | – | 0.2056 | 46.0561 | TatRev/PolyA ([1]; participant 1379): 0; LLTR/TAR ([1]; participant 1713): 1.88; PolyA/LLTR ([1]; participant 1713): 1.25; TatRev/PolyA ([1]; participant 1713): 0; LLTR/TAR ([1]; participant 2147b): 0.4766; PolyA/LLTR ([1]; participant 2147b): 0.7007; TatRev/PolyA ([1]; participant 2147b): 0; LLTR/TAR ([1]; participant 2750): 4.292; PolyA/LLTR ([1]; participant 2750): 1.638; TatRev/PolyA ([1]; participant 2750): 0.3964; TatRev/PolyA ([1]; participant 5557): 3.456 |
